The record followed here is patent publication US10329302B2, “Bicyclic-fused heteroaryl or aryl compounds” (Pfizer Inc., priority 2014, dated 2019).

Molecules are shown by their SMILES.

The term IC50 denotes the concentration needed to halve the response being measured.

Sequence of human IRAK4 FL (Full Length) (Q9NWZ3 whole entry): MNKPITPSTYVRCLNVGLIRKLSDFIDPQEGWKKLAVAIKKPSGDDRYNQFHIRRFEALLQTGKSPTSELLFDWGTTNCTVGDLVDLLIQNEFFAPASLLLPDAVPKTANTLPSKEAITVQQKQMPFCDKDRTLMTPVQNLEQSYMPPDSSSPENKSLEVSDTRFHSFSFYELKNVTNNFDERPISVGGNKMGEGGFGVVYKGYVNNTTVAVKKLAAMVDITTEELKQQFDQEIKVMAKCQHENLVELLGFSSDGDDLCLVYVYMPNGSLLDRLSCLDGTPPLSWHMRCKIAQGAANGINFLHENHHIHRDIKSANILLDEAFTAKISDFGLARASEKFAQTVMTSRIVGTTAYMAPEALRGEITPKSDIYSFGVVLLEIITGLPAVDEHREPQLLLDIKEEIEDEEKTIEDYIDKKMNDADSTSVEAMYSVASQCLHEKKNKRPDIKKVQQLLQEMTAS

The first experiment has as its target human IRAK4 FL (Full Length) (Homo sapiens (Human), UniProt Q9NWZ3). Nature of the experiment: IRAK4 Enzymatic DELFIA Assay, Protocol A. In kind it is biochemical.
Conditions: not given
Take `CC(C)Oc1cc2c(OC[C@@H]3CCC(=O)N3)ncc(CN)c2cc1C(N)=O` [Example 195, 4-(aminomethyl)-1-{[(2S)-5-oxopyrrolidin-2-yl]methoxy}-7-(propan-2-yloxy)isoquinoline-6-carboxamide]: the IC50 came out at 3400 nM.

Staying with this experiment, now noted: human IRAK4 FL, 0.6 mM ATP (KM); read-out: IRAK4 DELFIA Protocol A IC50.
Turning to `Cc1cnc(OC[C@@H]2CCC(=O)N2)c2cc(OC(C)C)c(C(N)=O)cc12` [Example 05, 4-methyl-1-{[(2S)-5-oxopyrrolidin-2-yl]methoxy}-7-(propan-2-yloxy)isoquinoline-6-carboxamide], the concentration for half-maximal inhibition (IC50) was 84 nM.

Turning to `CC(C)Oc1cc2c(OC[C@@H]3CCN(C(=O)CC#N)C3)ccnc2cc1C(N)=O` [Example 23, 4-{[(3R)-1-(cyanoacetyl)pyrrolidin-3-yl]methoxy}-6-(propan-2-yloxy)quinoline-7-carboxamide], the concentration for half-maximal inhibition (IC50) came out at 656 nM.

Regarding `CC(C)Oc1cc2c(OCC3CN(C(=O)CC#N)C3)ccnc2cc1C(N)=O` [Example 60, 4-{[1-(cyanoacetyl)azetidin-3-yl]methoxy}-6-(propan-2-yloxy)quinoline-7-carboxamide], the IC50 was 8.9 nM.

As to `CC(C)Oc1cc2c(OCC3CN(C(=O)CC#N)C3)nccc2cc1C(N)=O` [Example 69, 1-{[1-(cyanoacetyl)azetidin-3-yl]methoxy}-7-(propan-2-yloxy)isoquinoline-6-carboxamide], the IC50 is 29 nM.

Regarding `CC(C)Oc1cc2c(OCC3COCC(=O)N3)nccc2cc1C(N)=O` (stereo not drawn) [Example 116, 1-[(5-oxomorpholin-3-yl)methoxy]-7-(propan-2-yloxy)isoquinoline-6-carboxamide], the IC50 came out at 146 nM.

Consider `CC(C)Oc1cc2c(OCC3NC(=O)C4CCCCC34)nccc2cc1C(N)=O` (stereo not drawn) [Example 118, 1-[(3-oxooctahydro-1H-isoindol-1-yl)methoxy]-7-(propan-2-yloxy)isoquinoline-6-carboxamide], for which the IC50 is 162 nM.

With `NC(=O)c1cc2ccnc(OC[C@@H]3CCC(=O)N3)c2cc1OC1CCC1` [Example 120, 7-(cyclobutyloxy)-1-{[(2S)-5-oxopyrrolidin-2-yl]methoxy}isoquinoline-6-carboxamide], the IC50 came out at 1140 nM.

With `CC(C)Oc1cc2c(OC[C@]34CCC[C@H]3CNC4)nccc2cc1C(N)=O` [Example 123, 1-[(3aR,6aR)-hexahydrocyclopenta[c]pyrrol-3a(1H)-ylmethoxy]-7-(propan-2-yloxy)isoquinoline-6-carboxamide], the IC50 came to 747 nM.

`CC(C)Oc1cc2c(OC[C@]3(C)CCC(=O)N3)nccc2cc1C(N)=O` [Example 126, 1-{[(2S)-2-methyl-5-oxopyrrolidin-2-yl]methoxy}-7-(propan-2-yloxy)isoquinoline-6-carboxamide]: the IC50 came to 42 nM.

As to `NC(=O)c1cc2ccnc(OC[C@@H]3CCC(=O)N3)c2cc1OC(F)F` [Example 129, 7-(difluoromethoxy)-1-{[(2S)-5-oxopyrrolidin-2-yl]methoxy}isoquinoline-6-carboxamide], the IC50 turned out to be 231 nM.

As for `CC(C)Oc1cc2c(OC[C@@H]3C[C@@](C)(F)C(=O)N3)nccc2cc1C(N)=O` [Example 133, 1-{[(2S,4R)-4-fluoro-4-methyl-5-oxopyrrolidin-2-yl]methoxy}-7-(propan-2-yloxy)isoquinoline-6-carboxamide], the IC50 was found to be 175 nM.

`CC(C)Oc1cc2c(OC[C@@H]3C[C@H](C(C)(C)O)C(=O)N3)nccc2cc1C(N)=O` [Example 137, 1-{[(2S,4R)-4-(2-hydroxypropan-2-yl)-5-oxopyrrolidin-2-yl]methoxy}-7-(propan-2-yloxy)isoquinoline-6-carboxamide]: the IC50 is 98 nM.

With `CC(C)Oc1cc2c(OCC3CCC(=O)NC3)nccc2cc1C(N)=O` (stereo not drawn) [Example 142, 1-[(6-oxopiperidin-3-yl)methoxy]-7-(propan-2-yloxy)isoquinoline-6-carboxamide], the IC50 was 1220 nM.

As to `CC(C)Oc1cc2c(OCC3CCS(=O)(=O)N3)nccc2cc1C(N)=O` (stereo not drawn) [Example 143, 1-[(1,1-dioxido-1,2-thiazolidin-3-yl)methoxy]-7-(propan-2-yloxy)isoquinoline-6-carboxamide], the IC50 is 2540 nM.

On to `CC(C)Oc1cc2c(OC[C@H]3NC(=O)C[C@@H]3N)nccc2cc1C(N)=O` [Example 149, 1-{[(2S,3S)-3-amino-5-oxopyrrolidin-2-yl]methoxy}-7-(propan-2-yloxy)isoquinoline-6-carboxamide], for which the IC50 was found to be 105 nM.

On to `CC(C)Oc1cc2c(OC[C@@]3(CO)CCC(=O)N3)nccc2cc1C(N)=O` [Example 153, 1-{[(2S)-2-(hydroxymethyl)-5-oxopyrrolidin-2-yl]methoxy}-7-(propan-2-yloxy)isoquinoline-6-carboxamide], for which the IC50 came out at 1480 nM.

Regarding `CC(C)Oc1cc2c(OC[C@]3(CO)CCC(=O)N3)nccc2cc1C(N)=O` [Example 154, 1-{[(2R)-2-(hydroxymethyl)-5-oxopyrrolidin-2-yl]methoxy}-7-(propan-2-yloxy)isoquinoline-6-carboxamide], the IC50 is 17 nM.

For `CC(C)Oc1cc2c(OC[C@H]3NC(=O)C[C@@H]3C(F)(F)F)nccc2cc1C(N)=O` [Example 155, 1-{[(2S,3S)-5-oxo-3-(trifluoromethyl)pyrrolidin-2-yl]methoxy}-7-(propan-2-yloxy)isoquinoline-6-carboxamide], the IC50 was 267 nM.

For `CC(C)Oc1cc2c(O[C@H](C)[C@@H]3CCC(=O)N3)nccc2cc1C(N)=O` [Example 156, 1-{(1R)-1-[(2S)-5-oxopyrrolidin-2-yl]ethoxy}-7-(propan-2-yloxy)isoquinoline-6-carboxamide], the IC50 is 4100 nM.

For the molecule `CC(C)Oc1cc2c(O[C@@H](C)[C@@H]3CCC(=O)N3)nccc2cc1C(N)=O` [Example 157, 1-{(1S)-1-[(2S)-5-oxopyrrolidin-2-yl]ethoxy}-7-(propan-2-yloxy)isoquinoline-6-carboxamide], the IC50 is 152 nM.

Consider `CC(C)Oc1cc2c(OC[C@@H]3C[C@H](CO)C(=O)N3)nccc2cc1C(N)=O` [Example 165, 1-{[(2S,4R)-4-(hydroxymethyl)-5-oxopyrrolidin-2-yl]methoxy}-7-(propan-2-yloxy)isoquinoline-6-carboxamide], for which the IC50 came out at 541 nM.

Consider `CC(C)Oc1cc2c(OC[C@@H]3CCC(=O)N3)nccc2cc1C(=O)O` [Example 169, 1-{[(2S)-5-oxopyrrolidin-2-yl]methoxy}-7-(propan-2-yloxy)isoquinoline-6-carboxylic acid], for which the IC50 amounted to 890 nM.

With `CC(C)Oc1cc2c(OC[C@@H]3C[C@@](F)(C(C)(C)O)C(=O)N3)nccc2cc1C(N)=O` [Example 171, 1-{[(2S,4R)-4-fluoro-4-(2-hydroxypropan-2-yl)-5-oxopyrrolidin-2-yl]methoxy}-7-(propan-2-yloxy)isoquinoline-6-carboxamide], the IC50 is 101 nM.

With `CC(C)Oc1c(C(N)=O)cc2ccnc(OC[C@@H]3CCC(=O)N3)c2c1F` [Example 176, 8-fluoro-1-{[(2S)-5-oxopyrrolidin-2-yl]methoxy}-7-(propan-2-yloxy)isoquinoline-6-carboxamide], the IC50 came to 695 nM.

For `NC(=O)c1cc2ccnc(OC[C@@H]3CCC(=O)N3)c2cc1OC(F)(F)F` [Example 178, 1-{[(2S)-5-oxopyrrolidin-2-yl]methoxy}-7-(trifluoromethoxy)isoquinoline-6-carboxamide], the IC50 is 1690 nM.

As for `CC(C)Oc1cc2c(OC[C@@H]3C[C@@](O)(CC(F)(F)F)C(=O)N3)nccc2cc1C(N)=O` [Example 182, 1-{[(2S,4R)-4-hydroxy-5-oxo-4-(2,2,2-trifluoroethyl)pyrrolidin-2-yl]methoxy}-7-(propan-2-yloxy)isoquinoline-6-carboxamide], the IC50 was found to be 1050 nM.

With `CC(C)Oc1cc2c(OC[C@@H]3CN(C)C(=O)N3)nccc2cc1C(N)=O` [Example 185, 1-{[(4S)-1-methyl-2-oxoimidazolidin-4-yl]methoxy}-7-(propan-2-yloxy)isoquinoline-6-carboxamide], the IC50 came out at 116 nM.

Consider `CC(C)Oc1cc2c(O[C@@H]3CCC[C@]34CCC(=O)N4)nccc2cc1C(N)=O` [Example 186, 1-{[(5S,6R)-2-oxo-1-azaspiro[4.4]non-6-yl]oxy}-7-(propan-2-yloxy)isoquinoline-6-carboxamide], for which the IC50 came out at 303 nM.

In the case of `CC(C)Oc1cc2c(OC[C@@H]3CCC(=O)N3)ncc(C#N)c2cc1C(N)=O` [Example 190, 4-cyano-1-{[(2S)-5-oxopyrrolidin-2-yl]methoxy}-7-(propan-2-yloxy)isoquinoline-6-carboxamide], the IC50 is 294 nM.

As for `CC(C)Oc1cc2c(OC[C@@H]3C[C@H](C4(O)COC4)C(=O)N3)nccc2cc1C(N)=O` [Example 192, 1-{[(2S,4R)-4-(3-hydroxyoxetan-3-yl)-5-oxopyrrolidin-2-yl]methoxy}-7-(propan-2-yloxy)isoquinoline-6-carboxamide], the IC50 turned out to be 284 nM.

As for `CC(C)Oc1cc2c(OC[C@@H]3C[C@@H](C4(O)COC4)C(=O)N3)nccc2cc1C(N)=O` [Example 193, 1-{[(2S,4S)-4-(3-hydroxyoxetan-3-yl)-5-oxopyrrolidin-2-yl]methoxy}-7-(propan-2-yloxy)isoquinoline-6-carboxamide], the IC50 was determined as 238 nM.

Turning to `NC(=O)c1cc2ccnc(OC[C@@H]3CCC(=O)N3)c2cc1OC1COC1` [Example 199, 7-(oxetan-3-yloxy)-1-{[(2S)-5-oxopyrrolidin-2-yl]methoxy}isoquinoline-6-carboxamide], the IC50 was 2900 nM.

Consider `CC(C)(C)Oc1cc2c(OC[C@@H]3CCC(=O)N3)nccc2cc1C(N)=O` [Example 200, 7-tert-butoxy-1-{[(2S)-5-oxopyrrolidin-2-yl]methoxy}isoquinoline-6-carboxamide], for which the concentration for half-maximal inhibition (IC50) was found to be 697 nM.

Regarding `NC(=O)c1cc2ccnc(OC[C@@H]3CCC(=O)N3)c2cc1OCC1CC1` [Example 204, 7-(cyclopropylmethoxy)-1-{[(2S)-5-oxopyrrolidin-2-yl]methoxy}isoquinoline-6-carboxamide], the IC50 came to 2060 nM.

`COc1cc2c(OC[C@H]3NC(=O)[C@@](F)(CO)[C@H]3C)nccc2cc1C(N)=O` [Example 210, 1-{[(2S,3S,4S)-4-fluoro-4-(hydroxymethyl)-3-methyl-5-oxopyrrolidin-2-yl]methoxy}-7-methoxyisoquinoline-6-carboxamide]: the IC50 was found to be 3470 nM.
